Experiments:
[1] = irradiation of a solution of the conjugate with 365 nm UV-A radiation, followed by UV-visible spectra; format: physicochemical; settings: solution irradiated with 365 nm UV-A; judged from isosbestic points at 231 and 262 nm (FIG. 1)
Source text: The behaviour of 2-4 is characterised by irradiating a solution using 365 nm UV-A radiation. As the photochemical reaction proceeds, the UV-visible spectrum of the reaction mixture changes (FIG. 1), reflecting the formation of 1 and drug and the consumption of conjugate. […] The identity of reaction products was verified by chromatographic separation, followed by spectroscopic analysis to be solely the corresponding drug and 1. The reaction proceeded in an analogous fashion to related nondrug examples 12 and all three conjugates 2-4 behaved similarly.

[2] = solution in acetonitrile exposed to alternating periods of light and dark (365 nm), progress of drug liberation monitored; format: physicochemical; settings: six alternating periods (FIG. 2)
Source text: A solution of 2 in acetonitrile was then exposed to alternating periods of light and dark using the same conditions for light conditions as previously. […] The dose of liberated drug thus correlates with the duration of exposure to light. In this example, six periods of dosing and nondosing are alternated; this can be extended to any discrete dose required, in principle to the level of control provided from the light source, which includes molecule-scale control from low bursts of light deliverable from a laser source.

Row | side products of the photochemical reaction [1] | drug liberation reaction under light conditions ([2]; 365 nm light periods) | liberation of drug in dark conditions ([2]; dark periods) | SMILES
1 | no side products | – | – | COc1cc(OC)cc(C(OC(=O)C(C)c2ccc(CC(C)C)cc2)C(=O)c2ccccc2)c1 (stereo not drawn) [Compound 3]
2 | – | proceeds | stopped completely | COc1cc(OC)cc(C(OC(=O)c2ccccc2OC(C)=O)C(=O)c2ccccc2)c1 (stereo not drawn) [Compound 2]

Source: patent US20160136286A1, “DRUG DELIVERY COMPOSITION” (The Queen's University of Belfast, priority 2008, published 2016)
